# Source: patent publication US20230014782A1, “NEW SOLID STATE FORM OF LURBINECTEDIN” (PHARMA MAR, S.A., priority 2019, published 2023)
# Columns and labels:
# [1] = Electrostatic charge measurements with a Faraday cage; type: physicochemical; details: for Dispersion of charge density (Q/m) / Average charge density (Q/m): Faraday cage, dry nitrogen, ranges with 95% confidence; for Average charge density (Q/m): slope of lineal regression of charge vs mass
# Excerpt: The electrostatic charges of two batches of form A of lurbinectedin (Batches P04 and R05) and of form B of lurbinectedin (Batch 1924129-LT and 1924128-LT) have been measured using a Faraday cage (See FIG. 8) constructed of stainless steel with concentric spheres with ratios 10, 15 and 20 cm.
# This technique consists in placing the sample to be measured (q) in the interior of the inner sphere (a) and measuring the difference of potential induced between sphere (a) and another conductor of reference, sphere (b). The external sphere (c) is grounded in order to shield the system. The measurements of the difference of potential were carried out with a precision electrometer (Keithley 617, resolution 10fC.
# Measurements were carried out under controlled atmosphere of dry nitrogen in order to avoid the effect of ambient humidity on the electrostatic charge of the samples.
# Samples were introduced in glass capsules using non-conductor instrumental to avoid loses of electrostatic charge.
# The capsules loaded with the samples were introduced in the Faraday cage through a grounded conductor tube to avoid parasitic static charges in the glass capsule. The entry and removal of the capsules was done with a computer-controlled servo engine, in order to ensure a constant rate of introduction and removal of the capsules in each measurement to minimize the creation of static charges due to friction of the insulator elements.
# Several measurements with different amounts of material were carried out for each batch of each form of lurbinectedin. Before loading the capsules, they were washed and their remaining static charge was measured in order to correct the levels. Each sample was introduced and removed five times and, after each introduction, several consecutive measurements were taken in order to average any possible drift effect. FIGS. 9a and 9b summarized the results of such measurement for each pair of batches of forms A and B of lurbinectedin.
# The measured charge Q increases with the amount of analyzed material. Both forms of lurbinectedin have a positive electrostatic charge. […] The data was fitted by lineal regression (dashed lines in FIGS. 9a and 9b) to obtain the charge density (Q/m) as the slope of the line. […] All ranges are given with a 95% confidence.
# [2] = Direct dissolution of lurbinectedin in sodium lactate buffer (dissolution kinetics); type: physicochemical
# Description: In embodiments, the lurbinectedin to be dissolved is at least partially crystalline. The lurbinectedin to be dissolved may be in the solid state form(s) described herein. […] By way of example, while the direct dissolution of amorphous lurbinectedin at 0.5 mg/mL in 0.03 M sodium lactate buffer pH 4 was completed in approximately 30 minutes, partly crystalline lurbinectedin reached only 60-70% of the target concentration in 2 hours, meaning that it had much slower dissolution kinetics.
# [3] = TG-FTIR thermal degradation; type: physicochemical; details: N2 atmosphere, 25-250° C., 10° C./min
# Description: TG-FTIR experiments were conducted with a Thermo-Microbalance TG-209 (Netzsch) equipped with a FT-IR Spectrometer Vector 22 (Bruker) using Al crucible (open or with microhole) under N2 atmosphere with a heating range between 25 and 250° C. and a heating rate of 10° C./min.
# TG-FTIR indicates degradation above 150° C. for form B of lurbinectedin. A release of 2.6% of water was detected.
# DSC thermal degradation = type: physicochemical; details: closed Au crucibles, -50 to 250° C.
# Description: DSC experiments were carried out with a Perkin Elmer DSC 7 using closed Au crucibles with a heating range between −50 to 250° C. and a heating rate of 10 or 20° C./min.
# Estimation of the amorphous content by DSC was not possible. […] A glass transition temperature or melting point was not detected.
# [4] = Dynamic vapor sorption (DVS); type: physicochemical
# Description: DVS experiments were carried out with a Projekt Messtechnik SPS 11-100n multi-sample water vapor sorption analyzer. The sample was allowed to equilibrate at 50% r.h. before starting a pre-defined humidity program. The program was: • 2 h at 50% r.h. • 50 to 0% r.h. […]
# DVS indicates a continuous water uptake and release with no steps and almost no hysteresis. […] Upon lowering the relative humidity again, the water content decreased and nearly returned to the original mass, see FIG. 5.
# [5] = Maximum solubility of lurbinectedin in different molarities of lactic acid; type: physicochemical
# Description: As such, in embodiments, a concentrated lurbinectedin solution is prepared in organic acid before addition of other excipients. In preferred embodiments, the organic acid has a pH less than 4, preferably less than 3.5, more preferably less than 3, or around 3. The maximum solubility of lurbinectedin was investigated in different molarities of the organic acid lactic acid. […] In a preferred embodiment, lurbinectedin is dissolved in an organic acid with a molarity of around 0.1 M to 0.5 M, preferably around 0.2 M to 0.4 M, more preferably around 0.3 M organic acid. An exemplary molarity is 0.31 M organic acid.
# [6] = Mixing of the concentrated lurbinectedin solution with buffer solution, precipitation; type: physicochemical; details: high concentration lurbinectedin solution (8.3 mg/mL in 0.1M lactic acid)
# Description: In embodiments, a multi-step compounding strategy is used to prepare lurbinectedin. Step 1 is the pre-dissolution step described above, for example: pre-dissolving partly crystalline lurbinectedin in lactic acid 0.31M at 25 mg/mL and diluting 3× with WFI to obtain the concentrated solution at 8.3 mg/mL in 0.1M lactic acid. To avoid precipitation of lurbinectedin, the remaining excipients should have acid pH when added to the compounding formulation. […] As such, in Step 2, an organic buffer solution containing the bulking agent (eg disaccharide) may be prepared at suitable pH. By way of example, this may comprise the preparation of a 0.04 M sodium lactate buffer at pH of around 4.2 containing sucrose. In step 3, the solutions from step 1 and step 2 are combined to form the final bulk solution. The final bulk solution may be adjusted with WFI to achieve the final target weight. By way of example, in step 3, the 8.3 mg/mL lurbinectedin concentrated solution in 0.1M lactic acid with pH≈3 is diluted with 0.04M sodium lactate buffer pH≈4.2 containing sucrose. The final bulk solution composition after adjustment of WFI to final weight may be, by way of example, 0.5 mg/mL lurbinectedin in 0.03M sodium lactate buffer pH=4+10% (w/v) sucrose. The present invention therefore identifies a compounding strategy to formulate partially crystalline lurbinectedin.
# [7] = test system: solid and non-solid tumour cell lines; details: cited from earlier work
# [8] = test system: xenografted human tumor cell lines; details: xenografts in mice, such as breast, kidney and ovarian cancer; cited from earlier work
substance,measurement,setting,value
lurbinectedin [form B of lurbinectedin],Dispersion of charge density (Q/m),[1]; listed as 1924128-LT,1.01 ± 0.3 nC/g
same,Dispersion of charge density (Q/m),[1]; listed as 1924129-LT,3.4 ± 1.4 nC/g
same,Average charge density (Q/m),[1]; listed as 1924128-LT,4.3 ± 0.4 nC/g
same,Average charge density (Q/m),[1]; listed as 1924129-LT,4.96 ± 2.0 nC/g
same,Average charge density relative to form A,[1]; two different batches of each form,one order of magnitude lower
same,Fraction of target concentration reached,"[2]; target 0.5 mg/mL in 0.03 M sodium lactate buffer pH 4, in 2 hours",60-70%
same,Degradation temperature (TG-FTIR),[3],above 150 °C
same,Temperature at which degradation begins (DSC),DSC thermal degradation,above 130 °C
same,Deliquescence (DVS),[4],not deliquescent
same,Hygroscopicity (DVS),[4],hygroscopic
same,"Mass change Δm (water uptake, DVS)",[4]; 50 to 96% r.h.,≈ 4%
lurbinectedin [form A of lurbinectedin],Total static charge relative to form B,[1],considerably higher
same,Dispersion of charge density (Q/m),[1]; listed as P04,7.6 ± 2.8 nC/g
same,Dispersion of charge density (Q/m),[1]; listed as R05,15.23 ± 5.64 nC/g
same,Average charge density (Q/m),[1]; listed as P04,43.1 ± 3.86 nC/g
same,Average charge density (Q/m),[1]; listed as R05,64.02 ± 7.98 nC/g
same,Time to complete direct dissolution,[2]; 0.5 mg/mL in 0.03 M sodium lactate buffer pH 4,approximately 30 minutes
lurbinectedin,Maximum solubility,[5]; 0.05 M lactic acid,7.2 mg/mL
same,Maximum solubility,[5]; 0.5 M lactic acid,90.4 mg/mL
same,pH of buffer solution that can be mixed without precipitation of lurbinectedin,[6],≤ 5.6
same,In vitro activity,[7],highly potent
same,In vivo activity,[8],significant
